Tested on: T1, Debia-MDR
T1 construct: gene DebiaDRAFT_04514; full-length, N-terminal His6-tag (pET100, tag kept), E. coli Rosetta 2 (DE3); monomer 38,272 Da predicted, approx. 41 kDa with tag; native about 170 kDa, homotetramer; forward primer […]; (N-terminus MAKMMKT by translation)
Assay: spectrophotometric NADH consumption at […] nm
Assay type: biochemical, Desulfococcus biacutus
Settings: reduction direction, NADH co-substrate (0.1 mM in the general assay); 50 uM ZnCl2, 3 mM DTT, anoxic; general assay 25 mM MOPS pH 7.2, 30 °C

## CC(C)=O [acetone]
  Km: 40 µM

Source: publication PMC5123277, “Cloning, functional expression and characterization of a bifunctional 3-hydroxybutanal dehydrogenase /reductase involved in acetone metabolism by Desulfococcus biacutus” (BMC Microbiology, 2016)
